Target: T1, full length active recombinant SYK enzyme (Homo sapiens, UniProt P43405)
T1 construct: full length active recombinant SYK enzyme (Millipore, Calif.); purchased Millipore
Assay: Inhibition of Syk tyrosine phosphorylation activity (LANCE TR-FRET kinase assay)
Type: biochemical
Conditions: 1 nM SYK, 550 nM substrate, 100 μM ATP, 1 hour room temperature

| Structure (SMILES) | IC50 |
| --- | --- |
| Cc1cccc(Nc2nc(N[C@@H]3CC[C@H](N)C3)ncc2C(N)=O)c1 [Example 119, 4-(m-toluidino)-2-((1R,3S)-3-aminocyclopentylamino)pyrimidine-5-carboxamide] | 0.1 to 1 µM |
| CC[C@@H](Nc1ncc(C(N)=O)c(Nc2cccc(C)c2)n1)C1(N)CC1 [Example 126, (R)-2-(1-(1-aminocyclopropyl)propylamino)-4-(m-tolylamino)pyrimidine-5-carboxamide] | < 0.001 µM |
| CC[C@H](Nc1ncc(C(N)=O)c(Nc2cccc(C)c2)n1)C1(N)CC1 [Example 128, (S)-2-(1-(1-aminocyclopropyl)propylamino)-4-(m-tolylamino)pyrimidine-5-carboxamide] | 0.1 to 1 µM |
| CC[C@@H](Nc1ncc(C(N)=O)c(Nc2ccc(C)cc2)n1)C1(N)CC1 [Example 130, (R)-2-(1-(1-aminocyclopropyl)propylamino)-4-(p-tolylamino)pyrimidine-5-carboxamide] | 0.001 to 0.01 µM |
| CC[C@@H](Nc1ncc(C(N)=O)c(Nc2cccc(-c3ncccn3)c2)n1)C1(N)CC1 [Example 131, (R)-2-(1-(1-aminocyclopropyl)propylamino)-4-(3-(pyrimidin-2-yl)phenylamino)pyrimidine-5-carboxamide] | 0.001 to 0.01 µM |
| CC[C@@H](Nc1ncc(C(N)=O)c(Nc2cccc(-n3cccn3)c2)n1)C1(N)CC1 [Example 132, (R)-4-(3-(1H-pyrazol-1-yl)phenylamino)-2-(1-(1-aminocyclopropyl)propylamino)pyrimidine-5-carboxamide] | 0.001 to 0.01 µM |
| CC[C@@H](Nc1ncc(C(N)=O)c(Nc2cccc(C3=NCCCN3)c2)n1)C1(N)CC1 [Example 133, (R)-2-(1-(1-aminocyclopropyl)propylamino)-4-(3-(1,4,5,6-tetrahydropyrimidin-2-yl)phenylamino)pyrimidine-5-carboxamide] | 0.1 to 1 µM |

Further lines, results first:

| IC50 | Structure (SMILES) |
| --- | --- |
| 0.1 to 1 µM | NC(=O)c1cnc(N[C@@H](C2CC2)C2(N)CC2)nc1Nc1cccc(-c2ncccn2)c1 [Example 134, (S)-2-(1-(1-aminocyclopropyl)(cyclopropyl)methylamino)-4-(3-(pyrimidin-2-yl)phenylamino)pyrimidine-5-carboxamide] |
| 0.001 to 0.01 µM | NC(=O)c1cnc(N[C@H](C2CC2)C2(N)CC2)nc1Nc1cccc(-c2ncccn2)c1 [Example 135, (R)-2-(1-(1-aminocyclopropyl)(cyclopropyl)methylamino)-4-(3-(pyrimidin-2-yl)phenylamino)pyrimidine-5-carboxamide] |
| 0.001 to 0.01 µM | CC(C)[C@@H](Nc1ncc(C(N)=O)c(Nc2cccc(-c3ncccn3)c2)n1)C1(N)CC1 [Example 136, (R)-2-(1-(1-aminocyclopropyl)-2-methylpropylamino)-4-(3-(pyrimidin-2-yl)phenylamino)pyrimidine-5-carboxamide] |
| 0.001 to 0.01 µM | CC(C)[C@@H](Nc1ncc(C(N)=O)c(Nc2cccc(-n3nccn3)c2)n1)C1(N)CC1 [Example 138, (R)-4-(3-(2H-1,2,3-triazol-2-yl)phenylamino)-2-(1-(1-aminocyclopropyl)-2-methylpropylamino)pyrimidine-5-carboxamide] |
| 0.001 to 0.01 µM | CC(C)C[C@@H](Nc1ncc(C(N)=O)c(Nc2cccc(-n3cccn3)c2)n1)C1(N)CC1 [Example 139, (R)-4-(3-(1H-pyrazol-1-yl)phenylamino)-2-(1-(1-aminocyclopropyl)-3-methylbutylamino)pyrimidine-5-carboxamide] |
| 0.001 to 0.01 µM | CC(C)[C@@H](Nc1ncc(C(N)=O)c(Nc2cccc(-n3cccn3)c2)n1)C1(N)CC1 [Example 140, (R)-4-(3-(1H-pyrazol-1-yl)phenylamino)-2-(1-(1-aminocyclopropyl)-2-methylpropylamino)pyrimidine-5-carboxamide] |
| 0.001 to 0.01 µM | C[C@@H](Nc1ncc(C(N)=O)c(Nc2cccc(-c3ncccn3)c2)n1)C1(N)CC1 [Example 141, (R)-2-(1-(1-aminocyclopropyl)ethylamino)-4-(3-(pyrimidin-2-yl)phenylamino)pyrimidine-5-carboxamide] |

From US20140323418A1, “SELECTIVE KINASE INHIBITORS” (PORTOLA PHARMACEUTICALS, INC., priority 2011, published 2014)
